Assay results reported in PubChem BioAssay (NCI).
Several values for one entry are separate records, joined by “and”; a condition that tells them apart may be missing. Equal values may be shown once.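 Assay format: 96-well plates, 48-hour exposure. GI50: concentration for 50% inhibition of growth. TGI marks complete inhibition of growth.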

Experiments:
Experiment in all cases: inhibition of tumour cell growth, NCI panel, 48 h
HCC-2998 colon = test system: HCC-2998 colon
NCI-H226 lung = test system: NCI-H226 lung
CCRF-CEM leukemia = test system: CCRF-CEM leukemia
UACC-62 melanoma = test system: UACC-62 melanoma
M19-MEL melanoma = test system: M19-MEL melanoma
LXFL 529 NSCLC = test system: LXFL 529 NSCLC
SK-MEL-28 melanoma = test system: SK-MEL-28 melanoma
SK-MEL-5 melanoma = test system: SK-MEL-5 melanoma
BT-549 breast = test system: BT-549 breast
PC-3 prostate = test system: PC-3 prostate

| SMILES | TGI (HCC-2998 colon) | TGI (NCI-H226 lung) | TGI (CCRF-CEM leukemia) | TGI (UACC-62 melanoma) | TGI (M19-MEL melanoma) | TGI (LXFL 529 NSCLC) | TGI (SK-MEL-28 melanoma) | TGI (SK-MEL-5 melanoma) | GI50 (HCC-2998 colon) | GI50 (NCI-H226 lung) | GI50 (CCRF-CEM leukemia) [µM] | GI50 (UACC-62 melanoma) | GI50 (M19-MEL melanoma) [µM] | GI50 (BT-549 breast) [µM] | TGI (BT-549 breast) | GI50 (SK-MEL-28 melanoma) [µM] | TGI (PC-3 prostate) | GI50 (SK-MEL-5 melanoma) |
| --- | --- | --- | --- | --- | --- | --- | --- | --- | --- | --- | --- | --- | --- | --- | --- | --- | --- | --- |
| COc1ccc2cc3n(c(=O)c2c1)CCc1c-3cc(OC)c(OC)c1OC | > 100 µM | > 100 µM | > 100 µM | > 100 µM | > 100 µM | > 100 µM | > 100 µM | > 100 µM | – | – | – | – | – | – | – | – | – | – |
| COc1nc(N)nc2nc[nH]c12 | > 868 µM | 458 µM and 800 µM and > 1000 µM | 407 µM and 800 µM and > 920 µM | 429 µM and 800 µM and > 1000 µM | > 800 µM | > 800 µM | > 1000 µM | > 1000 µM | > 800 µM and 574 µM | 400 µM and 380 µM | 563 | 441 µM and 349 µM | > 800 | 580 | 500 µM and > 1000 µM | > 1000 | 500 µM and > 1000 µM | > 800 µM and 782 µM |
| C=C(C)c1nc(Oc2ccccc2)nc(Oc2ccccc2)n1 | 8.18 µM | 36.7 µM | 9.25 µM | 18.1 µM | 7.93 µM | 3.88 µM | 15.3 µM | 27.4 µM | – | – | – | – | – | – | 13.1 µM | – | 27.8 µM | – |
| Nc1ccccc1C(=O)/C=C/c1ccccc1O | > 100 µM | > 100 µM | > 100 µM | > 100 µM | > 100 µM | > 100 µM | > 100 µM | > 100 µM | – | – | – | – | – | – | – | – | – | – |
| CC(C)(C)C1CC[C@H]2c3c([nH]c4ccccc34)[C@H]3C(=O)N(c4ccc(F)cc4)C(=O)[C@H]3[C@H]2C1 (some centres not stated) | 28.4 µM | 35.3 µM | 35.5 µM | 29.6 µM | 34.7 µM | 30.7 µM | 46.5 µM | 35.8 µM | – | – | – | – | – | – | – | – | – | – |
| COC1=CC(=O)C(O)=C(CC2(C)C(C)CCC3(C)C2CCCC3(C)C)C1=O (configuration not stated) | 17.8 µM | 9.91 µM | 11.5 µM | 5.96 µM | 7.07 µM | 22.7 µM | 18.2 µM | 12.2 µM | – | – | – | – | – | – | – | – | – | – |
| CC(C)(C)C1CCC(O)(c2ccccc2)CC1 (configuration not stated) | > 100 µM and 60 µM | > 100 µM and 43 µM | > 100 µM | > 100 µM and 45.1 µM | > 100 µM and 41.6 µM | > 100 µM and 49.2 µM | > 100 µM and 64.5 µM | > 100 µM and 28.5 µM | – | – | – | – | – | – | – | – | – | – |
| CC1(C)CC(=O)C(C(=O)Nc2cccs2)=C(O)C1 | > 100 µM | 86.8 µM | 95.3 µM | > 100 µM | > 100 µM | > 100 µM | > 100 µM | > 100 µM | – | – | – | – | – | – | – | – | – | – |
| CN(C)c1ccc(/C=c2/sc3nc(=O)c(-c4ccccc4NC(=O)C(F)(F)F)nn3c2=O)cc1 | > 100 µM | > 100 µM | > 100 µM | > 100 µM | > 100 µM | > 100 µM | > 100 µM | > 100 µM | – | – | – | – | – | – | – | – | – | – |
| CCCCCNC(=O)CCCCCCCCCCCNC(=O)CCCCCCCCCCN1C=CC(=CC=C2C=CC(=O)C=C2)C=C1 | > 100 µM | > 100 µM | > 100 µM | > 100 µM | > 100 µM | > 100 µM | > 100 µM | > 100 µM | – | – | – | – | – | – | – | – | – | – |
| COC(=O)C1CC(=O)O[C@H]1c1ccc(OC)c(OC)c1 (some centres not stated) | > 100 µM | > 100 µM | > 100 µM | > 100 µM | > 100 µM | > 100 µM | > 100 µM | > 100 µM | – | – | – | – | – | – | – | – | – | – |
| O=C1c2ccccc2C2(O)N(c3ccccc3)C(=S)N(c3ccccc3)C12O (configuration not stated) | > 100 µM | > 100 µM | > 100 µM | > 100 µM | > 100 µM | > 100 µM | > 100 µM | > 100 µM | – | – | – | – | – | – | – | – | – | – |
| COc1ccc(C(C)Nc2cc(OC)c(OC)c(OC)c2)cc1 (configuration not stated) | > 72.2 µM | > 100 µM | > 100 µM | > 100 µM | > 100 µM | > 100 µM | > 100 µM | > 100 µM | – | – | – | – | – | – | – | – | – | – |
| CN(C)c1ccc(/C=C2\CCc3ccccc3C2=O)cc1Br | > 100 µM | > 100 µM | > 100 µM | > 100 µM | > 100 µM | > 100 µM | > 100 µM | 76.8 µM | – | – | – | – | – | – | – | – | – | – |
| CC(=O)NC(CCCNC(=O)OCc1ccccc1)C(=O)NCc1ccccc1 (configuration not stated) | > 100 µM | > 100 µM | > 100 µM | > 100 µM | > 100 µM | > 100 µM | > 100 µM | > 100 µM | – | – | – | – | – | – | – | – | – | – |
| N#CC1(CCCCl)CCCCC1 | > 100 µM | – | > 100 µM | > 100 µM | > 100 µM | > 100 µM | > 100 µM | > 100 µM | – | – | – | – | – | – | – | – | – | – |
| CC(C)CCCC(C)C1CCC2C3CC([N+](=O)[O-])=C4CC(O)CCC4(C)C3CCC12C (configuration not stated) | 37.2 µM | – | 42.9 µM | 40.3 µM | 73.3 µM | 32.9 µM | 35.2 µM | – | – | – | – | – | – | – | – | – | – | – |
| Cc1ccccc1NC(=O)CC(=O)NNCC(=O)Nc1nnc(-c2ccccc2)s1 | > 100 µM | > 100 µM | – | > 100 µM | > 100 µM | > 100 µM | > 100 µM | > 100 µM | – | – | – | – | – | – | – | – | – | – |
| COC(=O)N/N=C(\C)c1sc(-c2nc(C)c(/C(C)=N/NC(=O)OC)s2)nc1C | > 100 µM | > 100 µM | > 100 µM | > 100 µM | > 100 µM | > 100 µM | > 100 µM | > 100 µM | – | – | – | – | – | – | – | – | – | – |
| CCOC(=O)C1C(NC(N)=O)N(Cc2ccccc2)C(=O)N1Cc1ccccc1 (configuration not stated) | > 100 µM | – | > 100 µM | > 100 µM | > 100 µM | > 100 µM | > 100 µM | > 100 µM | – | – | – | – | – | – | – | – | – | – |
| ON1CCc2c([nH]c3ccccc23)C1c1ccc(Cl)cc1 (configuration not stated) | 72.3 µM | 73 µM | 93.8 µM | > 100 µM | > 100 µM | > 100 µM | > 100 µM | – | – | – | – | – | – | – | – | – | – | – |
| C/C(=C\c1ccccc1)C(O)C(=O)c1nc2ccc(Cl)cc2[nH]c1=O (configuration not stated) | > 100 µM | > 100 µM | 78.9 µM | > 100 µM | > 100 µM | > 100 µM | > 100 µM | > 100 µM | – | – | – | – | – | – | – | – | – | – |
| O=C(CC1(O)C(=O)Nc2c(Cl)cc(Cl)cc21)c1cccc([N+](=O)[O-])c1 (configuration not stated) | > 70.4 µM | > 77.5 µM | 48.2 µM | 44.7 µM | 16.7 µM | 30 µM | > 80.6 µM | 30.9 µM | – | – | – | – | – | – | > 100 µM | – | > 100 µM | – |
